In paper PMC12006171, “Marsupial cathelicidins: characterization, antimicrobial activity and evolution in this unique mammalian lineage” (Frontiers in Immunology, 2025):
Converted amounts (≈) assume the structure as drawn. Read-outs that look alike come from different tables or passages of the source. Where a SMILES comes first, the peptide text is derived from it.

Tests used:
Test in all cases: microbe, parasite or virus in culture
Assay type in all cases: cell-based
[1] = tested on: Escherichia coli ATCC 25922; details: ATCC 25922
Procedure: (§1) Antimicrobial testing of 78 cathelicidin MPs was performed in two phases as outlined in Figure 1 . In phase I, 40 peptides (27 extant and 13 ancestral) were selected for testing based on rank (outlined above) and similarity to published marsupial cathelicidins with known antimicrobial activity ([33], [41]–[43]). These peptides were tested against nine bacteria (Staphylococcus aureus ATCC 29213 and clinical isolate, Escherichia coli ATCC 25922 and clinical isolate, Pseudomonas aeruginosa ATCC 27853 and clinical isolate, Streptococcus agalactiae ATCC 12386 and clinical isolate, Streptococcus pneumoniae ATCC 49619) and three fungi (Candida krusei ATCC 6258, Candida parapsilosis ATCC 22019, and Candida albicans clinical isolate). Details regarding these strains are available in Supplementary Table 4 . The antimicrobial activity of cathelicidins was determined as the minimum inhibitory concentration (MIC), which was the lowest concentration of cathelicidin that prevented visible bacterial or fungal growth, relative to the negative control. […] Minimum bactericidal concentration (MBC) and/or minimum fungicidal concentration (MFC) was conducted to determine microbicidal versus static action. Activity against S. aureus ATCC, E. coli ATCC, and Pseudomonas aeruginosa ATCC 27853 was examined in the presence of divalent cations to determine the impact of inhibitors.
(§2) In phase II, the remaining 38 peptides (37 extant and one ancestral) were tested against six bacteria (S. aureus ATCC and clinical isolate, E. coli ATCC and clinical isolate, and P. aeruginosa ATCC and clinical isolate). […] No further testing on phase II peptides was performed. Detailed methods for all assays are provided in subsequent sections.
(§3) Antimicrobial activity was determined using a broth microdilution susceptibility assay in 96 well polypropylene plates according to Clinical Laboratory Standards Institute guidelines M07-A and M26A as described previously ([33], [42], [43]). The bacterial and fungal isolates from humans and animals used in this study are outlined in Supplementary Table 4 . Only yeasts were included in the panel of fungi as they have been used in the susceptibility testing of eutherian ([3], [81]–[83]) and other marsupial cathelicidins previously ([33], [42], [43]). Cathelicidin mature peptides were solubilized in DMSO and serially diluted in duplicate from 128-0.25μg/mL in a final volume of 100µL. For bacteria, cathelicidins were diluted in Mueller Hinton Broth (MHB) with or without 10% lysed horse blood, and with (MH II B) or without (MHB) calcium and magnesium cations. For fungi, cathelicidins were diluted in Roswell Park Memorial Institute medium (RPMI)-1640 MOPS. Ampicillin or tetracycline were included as a positive control for Gram-positive and -negative bacteria respectively, while amphotericin B was used for fungi. A media-only negative control and growth control (no cathelicidin) were also included on each plate. Bacteria were sub-cultured on Muller Hinton agar (MHA) or sheep blood agar (BA), and fungi on Sabouraud dextrose agar (SAB), 20–24 hours prior to the test. Colonies were suspended in saline, the concentration adjusted to a 0.5 McFarland standard, and then diluted in media to a concentration of 1.0 x 10^6 cells/mL. Then, 100μL was added to each well of the cathelicidin dilution plate, giving a final inoculum density of 5 x 10^5 CFU/mL and cathelicidin concentration of 64-0.125μg/mL. Colony counts were performed on MHA/BA/SAB to confirm inoculum density. All plates were incubated at 35°C for 20–24 hours, depending on the strain.
(§4) Colonies were counted and compared to the colony count of the starting inoculum.

[2] = tested on: Escherichia coli clinical isolate - animal; details: clinical isolate - animal
Procedure: as §1, §2, §3, §4

[3] = tested on: Pseudomonas aeruginosa ATCC 27853
Procedure: as §1, §2, §3, §4

[4] = tested on: Pseudomonas aeruginosa clinical isolate - animal
Procedure: as §1, §2, §3, §4

[5] = tested on: Staphylococcus aureus ATCC 29213; details: ATCC 29213
Procedure: as §1, §2, §3, §4

[6] = tested on: Staphylococcus aureus clinical isolate - animal; details: clinical isolate - animal
Procedure: as §1, §2, §3, §4

MIC E. coli ATCC [1]	MIC [2]	MIC ([3]; ATCC 27853, read-out: MIC P. aeruginosa ATCC)	MIC ([4]; clinical isolate - animal, read-out: MIC P. aeruginosa)	MIC ([5]; read-out: MIC S. aureus ATCC)	MIC S. aureus [6]	Compound	MBC E. coli ATCC [1]	MBC E. coli [2]	MBC S. aureus ATCC [5]	MBC S. aureus [6]	MIC ([3]; Pseudomonas aeruginosa, ATCC27853, MHB without cations, 5 x 10^5 CFU/mL, 35°C 20–24 hours, duplicate, read-out: MIC P. aeruginosa ATCC)	MIC ([3]; Pseudomonas aeruginosa, ATCC27853, superscript value, cation-adjusted Mueller Hinton broth, read-out: MIC in the presence of cations P. aeruginosa ATCC)	MIC ([3]; Pseudomonas aeruginosa, ATCC27853, superscript value, cation-adjusted Mueller Hinton broth, µM equivalent, read-out: MIC in the presence of cations P. aeruginosa ATCC)	MIC ([3]; Pseudomonas aeruginosa, ATCC27853, µM equivalent of Table 3, read-out: MIC P. aeruginosa ATCC)	MIC ([4]; Pseudomonas aeruginosa, clinical isolate, MHB without cations, 5 x 10^5 CFU/mL, 35°C 20–24 hours, duplicate, read-out: MIC P. aeruginosa)	MIC ([4]; Pseudomonas aeruginosa, clinical isolate, superscript value, cation-adjusted Mueller Hinton broth, read-out: MIC in the presence of cations P. aeruginosa)	MIC ([4]; Pseudomonas aeruginosa, clinical isolate, superscript value, cation-adjusted Mueller Hinton broth, µM equivalent, read-out: MIC in the presence of cations P. aeruginosa)	MIC ([4]; Pseudomonas aeruginosa, clinical isolate, µM equivalent of Table 3, read-out: MIC P. aeruginosa)
3.9 µM (≈ 15.6 µg/mL)	3.9 µM (≈ 15.6 µg/mL)	>15.9 µM	>15.9 µM	7.9 µM (≈ 31.6 µg/mL)	7.9 µM (≈ 31.6 µg/mL)	CC[C@H](C)[C@H](NC(=O)[C@H](CC(C)C)NC(=O)[C@H](CC(N)=O)NC(=O)[C@@H](NC(=O)[C@H](Cc1ccccc1)NC(=O)CNC(=O)[C@@H](N)Cc1c[nH]c2ccccc12)[C@@H](C)O)C(=O)N[C@@H](Cc1ccc(O)cc1)C(=O)N[C@@H](CCC(N)=O)C(=O)N[C@@H](CCCCN)C(=O)N[C@@H](Cc1ccc(O)cc1)C(=O)N[C@@H](CCCCN)C(=O)N[C@@H](CC(C)C)C(=O)N[C@@H](CC(C)C)C(=O)N[C@@H](CCCNC(=N)N)C(=O)N[C@@H](CC(N)=O)C(=O)N[C@H](C(=O)N[C@@H](Cc1ccccc1)C(=O)N[C@@H](CCCNC(=N)N)C(=O)N[C@@H](CCCCN)C(=O)N[C@@H](CC(C)C)C(=O)N[C@@H](CCCNC(=N)N)C(=O)N[C@@H](CC(N)=O)C(=O)N[C@H](C(=O)N[C@@H](CO)C(=O)N[C@@H](CO)C(=O)NCC(=O)NCC(=O)N[C@@H](CCCNC(=N)N)C(=O)N[C@@H](CC(=O)O)C(=O)N[C@@H](CC(N)=O)C(=O)N[C@@H](CCCCN)C(=O)N[C@@H](CCCCN)C(=O)O)[C@@H](C)O)C(C)C [BepeCath4] (H-WGFTNLIYQKYKLLRNVFRKLRNTSSGGRDNKK-OH)	3.9 µM (≈ 15.6 µg/mL)	7.9 µM (≈ 31.6 µg/mL)	15.9 µM (≈ 63.6 µg/mL)	7.9 µM (≈ 31.6 µg/mL)	–	–	–	–	–	–	–	–
–	–	–	–	–	–	CN(C)[C@@H]1C(O)=C(C(N)=O)C(=O)[C@@]2(O)C(O)=C3C(=O)c4c(O)cccc4[C@@](C)(O)[C@H]3C[C@@H]12 [Tetracycline, reference compound]	–	–	–	–	32 µg/mL	32 µg/mL	72 µM	72 µM	32 µg/mL	32 µg/mL	72 µM	72 µM
